From PubChem BioAssay (NCI)
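48-hour exposure; five concentrations; linearly interpolated endpoints. The concentration for 50% growth inhibition is given as GI50. TGI is the concentration that stops growth completely.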

Assays:
Assay in all cases: NCI tumour cell line growth inhibition, 48 h
EKVX NSCLC = system: EKVX NSCLC
T-47D breast = system: T-47D breast
MALME-3M melanoma = system: MALME-3M melanoma
CAKI-1 renal = system: CAKI-1 renal
A498 renal = system: A498 renal
HCT-15 colon = system: HCT-15 colon
M14 melanoma = system: M14 melanoma
HS 578T breast = system: HS 578T breast
TK-10 renal = system: TK-10 renal
NCI-H522 lung = system: NCI-H522 lung

Row | Compound | GI50 (EKVX NSCLC) [µM] | TGI (EKVX NSCLC) [µM] | GI50 (T-47D breast) [µM] | TGI (T-47D breast) [µM] | GI50 (MALME-3M melanoma) [µM] | TGI (MALME-3M melanoma) [µM] | GI50 (CAKI-1 renal) [µM] | TGI (CAKI-1 renal) [µM] | GI50 (A498 renal) [µM] | TGI (A498 renal) [µM] | GI50 (HCT-15 colon) [µM] | TGI (HCT-15 colon) [µM] | GI50 (M14 melanoma) [µM] | TGI (M14 melanoma) [µM] | GI50 (HS 578T breast) [µM] | TGI (HS 578T breast) [µM] | GI50 (TK-10 renal) [µM] | TGI (TK-10 renal) [µM] | GI50 (NCI-H522 lung) [µM] | TGI (NCI-H522 lung) [µM]
1 | O=P(CCCCP(=O)(c1ccccc1)c1ccccc1)(c1ccccc1)c1ccccc1.[Cl][Sn]([Cl])([c]1ccccc1)[c]1ccccc1 | 2.71 | 7.92 | 0.073 | 0.415 | 1.41 | 3.1 | 0.661 | 3.32 | 2 | 3.76 | 1.23 | 3.02 | 1.77 | 3.81 | 4.1 | > 50.6 | 1.77 | 3.32 | 0.0514 | 0.208
2 | COc1cc(NC(=O)CSc2nc3ccc(C)cc3c(=O)n2Cc2ccccc2)cc(OC)c1OC | 8.59 | > 100 | 4.01 | 66.9 | 4.07 | 31.3 | 5.08 | > 100 | 1.01 | 5.55 | > 100 | > 100 | 8.38 | > 100 | 3.23 | > 100 | 5.58 | 92.3 | 4.63 | 47
3 | C=C(C)[C@@H]1CC[C@]2(C)[C@H](CC=C3[C@@H]4[C@@H](C)[C@H](C)CC[C@]4(C(N)=O)CC[C@]32C)[C@@]1(C)CCC#N | 5.22 | > 100 | 2.85 | > 100 | 5.69 | 27.9 | 3.25 | > 100 | 11 | 44.5 | 3.44 | > 100 | 4.08 | 23.6 | 11.6 | 88.8 | 8.41 | 91.5 | 3.56 | 50.9
4 | CCC[CH2][Sn]([CH2]CCC)([CH2]CCC)[O]C(=O)c1ccc(Cl)cc1Cl | 0.099 | 0.273 | 0.138 | 0.289 | 0.111 | 0.258 | 0.0785 | 0.255 | 0.11 | 0.236 | 0.173 | 0.419 | 0.147 | 0.29 | 0.173 | 0.538 | 0.132 | 0.267 | 0.0784 | 0.251
5 | CC(=O)OCC(=O)[C@@]12OC(C)(C)O[C@@H]1C[C@H]1[C@@H]3CC=C4C[C@@H](O)CC[C@]4(C)[C@H]3CC[C@@]12C |  | > 100 |  | > 100 |  | > 100 |  | > 100 |  | > 100 |  | > 100 |  | > 100 |  | 63.4 |  | > 100 |  | > 100
6 | CC(C)COCC(CN(Cc1ccccc1)c1ccccc1)N1CCCC1 (stereo not given) | 2.85 | 15.1 | 1.74 | 6.49 | 1.89 | 4.74 | 3.25 | 13.7 | 1.03 | 10.4 | 3.15 | 15.2 | 2.3 | 5.76 | 3.6 | 18.2 | 3.43 | 12 | 1.61 | 3.35
7 | N#CC1=C(N)Oc2c(sc3c(Br)cccc23)C1c1ccc(Br)cc1 (stereo not given) | 3.31 | 20.5 | 0.397 | 4.67 | 1.39 | 20.7 | 1.97 | 22.2 | 0.633 | 9.56 | 0.601 | 11.4 | 0.515 | 3.5 | 2.44 | 13.5 | 0.986 | 2.57 | 0.088 | 0.534
8 | CC(NCCC(=O)N(CCC(=O)N(CCC(=O)N(CCC(=O)N(CCC(=O)N(CCC(=O)N(CCC(=O)N(CCC(=O)N(CCC(=O)N(CCC(=O)O)[C@H](C)c1ccccc1)[C@H](C)c1ccccc1)[C@H](C)c1ccccc1)[C@H](C)c1ccccc1)[C@H](C)c1ccccc1)[C@H](C)c1ccccc1)[C@H](C)c1ccccc1)[C@H](C)c1ccccc1)[C@H](C)c1ccccc1)c1ccccc1 (stereo not given in full) | 3.73 | > 75 | 3.42 | > 75 | 2.04 | 5.91 | 3.49 | > 45.1 | 2.37 | 11.8 | 3.22 | > 27 | 1.77 | 5.49 | 2.54 | > 57.3 | 3.38 | 23.2 | 2.12 | 24.5
9 | O=C1C=CC[C@H](/C=C/c2ccccc2)O1 | 6.48 | > 50.1 | 6.29 | 37.7 | 18.5 | > 100 | 1.05 | 14.4 | 1.45 | 6.91 | 3.14 | 22.2 | 5.85 | 23.3 | 3.15 | 30.4 | 11.5 | > 53.2 | 2.72 | > 25.4
10 | CCCCCCCCCCCCOC1C(C(COC2OC(C3COC(C)(C)O3)C3OC(C)(C)OC23)NC(=O)NS(=O)(=O)c2ccccc2)OC2OC(C)(C)OC21 (stereo not given) | 3.89 | 16.8 | 8.66 | 39.5 | 13.7 | 41.8 | 7.14 | 20 | 3.87 | 11.9 | 3.68 | 15 | 5.23 | 18.9 | 2.9 | 11.1 | 5.96 | 19.6 | 6.56 | 32.8
11 | Cc1ccc2c(c1)C(C)Cc1c(Cl)ncnc1N2C (stereo not given) | 2.33 | 26.3 | 6.9 | 65 | 1.76 | 6.5 | 3.22 | > 100 | 2.08 | 4.78 | 3.08 | 14.1 | 2.77 | 22.9 | 1.89 | 34 | 4.32 | 34.4 | 2.67 | 8.03
